Usually Ki stands for a dissociation constant, usually derived from enzyme kinetics or from competition with a known ligand. Read a high Ki as lower affinity.

Experimental findings from ChEMBL document CHEMBL3868615, “Decahydrobenzoquinolin-5-one sigma receptor ligands: Divergent development of both sigma 1 and sigma 2 receptor selective examples” (Bioorg Med Chem Lett, 2016) are described below.

Experiment [1] concerns the target Kappa-type opioid receptor (Homo sapiens, UniProt P41145). Briefly: Displacement of [3H]U69593 from KOR (unknown origin) expressed in HEKT cells measured after 90 mins by microbeta scintillation counting method. It is filed as cell-based. On the technique in general: Displacement assays read how much labelled ligand stays bound in the presence of the test substance.

Experiment [2] is described as follows: Displacement of [3H]DTG from sigma2 receptor in rat PC12 cells measured after 90 mins by microbeta scintillation counting method. It is filed as cell-based. The note with it: pc-12.
For a further experiment, the target named is Mu-type opioid receptor (Homo sapiens, UniProt P35372). The experiment is described as follows: Displacement of [3H]DAMGO from human MOR expressed in HEK cells after 90 mins by microbeta scintillation counting method. Format: cell-based, HEK293.
Chain of Mu-type opioid receptor (P35372 whole entry): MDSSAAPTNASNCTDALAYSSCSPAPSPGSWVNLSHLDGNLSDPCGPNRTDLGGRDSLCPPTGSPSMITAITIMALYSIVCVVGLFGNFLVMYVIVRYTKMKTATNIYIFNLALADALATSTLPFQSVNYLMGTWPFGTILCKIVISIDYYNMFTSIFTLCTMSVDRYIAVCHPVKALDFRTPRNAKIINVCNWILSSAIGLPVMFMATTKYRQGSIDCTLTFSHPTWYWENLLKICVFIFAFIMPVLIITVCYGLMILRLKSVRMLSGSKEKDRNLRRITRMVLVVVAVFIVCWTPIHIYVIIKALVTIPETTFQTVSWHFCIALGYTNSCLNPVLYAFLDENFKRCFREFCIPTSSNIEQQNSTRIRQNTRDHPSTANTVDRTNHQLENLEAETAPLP
Experiment [3] has as its target Delta-type opioid receptor (Homo sapiens, UniProt P41143). Briefly: Displacement of [3H]DADLE from human DOR expressed in HEK cells measured after 90 mins by microbeta scintillation counting method. It is filed as cell-based, HEK293.
Experiment [4] concerns the target Sigma non-opioid intracellular receptor 1 (Cavia porcellus, UniProt Q60492). The experiment is described as follows: Displacement of [3H]pentazocine from guinea pig sigma1 receptor measured after 90 mins by microbeta scintillation counting method.
The subject of experiment [5] is PC-12. The experiment is described as follows: Selectivity ratio of Ki for sigma2 receptor in rat PC12 cells to Ki for guinea pig sigma1 receptor. Format: cell-based.
The test system of experiment [6] is PC-12. The experiment is described as follows: Selectivity ratio of Ki for guinea pig sigma1 receptor to Ki for sigma2 receptor in rat PC12 cells. Format: cell-based.

A value given as a limit tells only on which side of the number the result lay.

Chain of Kappa-type opioid receptor (P41145 whole entry): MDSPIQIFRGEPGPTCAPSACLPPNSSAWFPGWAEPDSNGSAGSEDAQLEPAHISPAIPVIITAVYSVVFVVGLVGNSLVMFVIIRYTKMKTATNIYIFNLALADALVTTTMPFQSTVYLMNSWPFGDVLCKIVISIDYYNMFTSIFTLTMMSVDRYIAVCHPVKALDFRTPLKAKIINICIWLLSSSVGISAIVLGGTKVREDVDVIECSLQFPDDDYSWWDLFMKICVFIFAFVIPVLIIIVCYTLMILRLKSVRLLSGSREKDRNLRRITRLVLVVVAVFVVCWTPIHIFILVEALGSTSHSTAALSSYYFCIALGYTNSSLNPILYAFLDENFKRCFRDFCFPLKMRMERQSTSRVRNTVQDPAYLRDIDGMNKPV
Chain of Sigma non-opioid intracellular receptor 1 (Q60492 whole entry): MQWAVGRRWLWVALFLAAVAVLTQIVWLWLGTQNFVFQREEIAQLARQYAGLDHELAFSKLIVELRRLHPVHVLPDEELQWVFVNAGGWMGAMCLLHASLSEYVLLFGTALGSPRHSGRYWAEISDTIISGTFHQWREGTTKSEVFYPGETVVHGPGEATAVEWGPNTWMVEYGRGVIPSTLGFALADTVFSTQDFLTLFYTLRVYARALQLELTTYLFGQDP
Chain of Delta-type opioid receptor (P41143 whole entry): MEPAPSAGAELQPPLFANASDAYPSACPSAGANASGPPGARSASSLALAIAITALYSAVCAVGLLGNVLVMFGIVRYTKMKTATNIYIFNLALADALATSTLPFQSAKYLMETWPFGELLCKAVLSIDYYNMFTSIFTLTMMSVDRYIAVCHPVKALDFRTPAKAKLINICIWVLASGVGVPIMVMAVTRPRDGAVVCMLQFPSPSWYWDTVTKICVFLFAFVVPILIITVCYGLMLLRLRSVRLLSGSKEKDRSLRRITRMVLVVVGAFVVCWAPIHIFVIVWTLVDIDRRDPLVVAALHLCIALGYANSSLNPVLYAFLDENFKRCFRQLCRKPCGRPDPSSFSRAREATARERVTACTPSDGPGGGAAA

Turning to `CC[C@H]1C(=O)C[C@@H]2CCN(S(=O)(=O)c3ccc(C)cc3)[C@@H]3CCC[C@H]1[C@@H]23`, the Ki (in experiment [1]; in experiment [2]; at Mu-type opioid receptor; in experiment [3]; in experiment [4]) was greater than 10000 nM throughout.
Turning to `CC[C@H]1C(=O)C[C@@H]2CCN(CC3CCCCC3)[C@@H]3CCC[C@H]1[C@@H]23`, the Ki in experiment [1] was 278 nM; in experiment [2] it was 3 nM; at Mu-type opioid receptor, 1900 nM; in experiment [3], greater than 10000 nM; in experiment [4], 4 nM. Further, the Ratio Ki in the experiment on PC-12 [5] is 0.8.
On to `COc1ccc(C[C@H]2C(=O)C[C@@H]3CCN(C)[C@@H]4CCC[C@H]2[C@@H]34)cc1`, for which the Ki in experiment [1] was greater than 10000 nM; in experiment [2] it was 251 nM; at Mu-type opioid receptor, greater than 10000 nM; in experiment [3] it was greater than 10000 nM; in experiment [4], 5 nM. Besides, in the experiment on PC-12 [5], the Ratio Ki was 50.2.
Regarding `CCCN1CC[C@H]2CC(=O)C[C@H]3CCC[C@@H]1[C@@H]32`, the Ki in experiment [1] was greater than 10000 nM; in experiment [2] it was 127 nM; at Mu-type opioid receptor it was greater than 10000 nM; in experiment [3], greater than 10000 nM; in experiment [4], 126 nM. Also, the Ratio Ki in the experiment on PC-12 [5] is 1.
As for `O=C(CCCN1CCC(O)(c2ccc(Cl)cc2)CC1)c1ccc(F)cc1` [HALOPERIDOL], the inhibition constant Ki in experiment [2] came out at 14 nM.
On to `CCCN1CC[C@H]2CC(=O)[C@H](Cc3ccccc3)[C@H]3CCC[C@@H]1[C@H]23`, for which the Ki is 3620 nM in experiment [1]; 5 nM in experiment [2]; greater than 10000 nM on Mu-type opioid receptor; greater than 10000 nM in experiment [3]; 1 nM in experiment [4]. The Ratio Ki with PC-12 [5] was 5.
For `O=C1C[C@@H]2CCN(Cc3nccs3)[C@@H]3CCC[C@@H]([C@@H]23)[C@H]1Cc1ccccc1`, the Ki in experiment [1] is 1400 nM; in experiment [2], 270 nM; on Mu-type opioid receptor it was greater than 10000 nM; in experiment [3] it was greater than 10000 nM; in experiment [4], 3 nM. In addition, the Ratio Ki with PC-12 [5] came out at 90.
`COc1ccc(C[C@H]2C(=O)C[C@@H]3CCN(CCC(C)C)[C@@H]4CCC[C@H]2[C@@H]34)cc1`: the Ki is greater than 10000 nM in experiment [1]; 6 nM in experiment [2]; greater than 10000 nM on Mu-type opioid receptor; greater than 10000 nM in experiment [3]; 3 nM in experiment [4]. Moreover, the Ratio Ki in the experiment on PC-12 [5] came to 2.
Regarding `CC[C@H]1C(=O)C[C@@H]2CCN(C(=O)NCc3ccc(Cl)cc3)[C@@H]3CCC[C@H]1[C@@H]23`, the Ki in experiment [1] was greater than 10000 nM; in experiment [2], 1910 nM; on Mu-type opioid receptor, greater than 10000 nM; in experiment [3], greater than 10000 nM; in experiment [4], 722 nM. In the experiment with PC-12 [5], the Ratio Ki came to 2.6.
Consider `CC[C@H]1C(=O)C[C@@H]2CCN(CCC(C)C)[C@@H]3CCC[C@H]1[C@@H]23`, for which the Ki in experiment [1] is 1280 nM; in experiment [2] it was 6 nM; at Mu-type opioid receptor, greater than 10000 nM; in experiment [3], greater than 10000 nM; in experiment [4] it was 4 nM. For the same compound, the Ratio Ki in the experiment with PC-12 [5] was determined as 1.5.
Turning to `CCCN1CC[C@H]2c3cc4cccc(OC)c4nc3[C@H](CC)[C@H]3CCC[C@@H]1[C@@H]32`, the Ki in experiment [1] was 1690 nM; in experiment [2], 63 nM; at Mu-type opioid receptor it was greater than 10000 nM; in experiment [3], greater than 10000 nM; in experiment [4], 171 nM. Also, the results for the Ratio Ki in the experiment with PC-12 [5] and in the experiment with PC-12 [6] were 0.4 and 2.7, respectively.
`CCCCCCCN1CC[C@H]2CC(=O)[C@H](CC)[C@H]3CCC[C@@H]1[C@H]23`: the Ki in experiment [1] was greater than 10000 nM; in experiment [2], 8 nM; at Mu-type opioid receptor, 632 nM; in experiment [3], greater than 10000 nM; in experiment [4], 2 nM. The Ratio Ki with PC-12 [5] turned out to be 4.
For the compound `CC[C@H]1C(=O)C[C@@H]2CCN(C)[C@@H]3CCC[C@H]1[C@@H]23`, the Ki is greater than 10000 nM in experiment [1]; greater than 5930 nM in experiment [2]; greater than 10000 nM on Mu-type opioid receptor; greater than 10000 nM in experiment [3]; 137 nM in experiment [4]. In addition, the Ratio Ki in the experiment on PC-12 [5] was greater than 43.3.
Take `CC[C@H]1c2nc3ccccc3cc2[C@@H]2CCN(C)[C@@H]3CCC[C@H]1[C@H]32`: the Ki is 3490 nM in experiment [1]; 86 nM in experiment [2]; greater than 10000 nM on Mu-type opioid receptor; greater than 10000 nM in experiment [3]; 189 nM in experiment [4]. For the same compound, the Ratio Ki in the experiment on PC-12 [5] was 0.5; in the experiment on PC-12 [6], 2.2.
For the compound `CCCN1CC[C@H]2CC(=O)[C@H](Cc3ccc(OC)cc3)[C@H]3CCC[C@@H]1[C@H]23`, the Ki was greater than 10000 nM in experiment [1]; 29 nM in experiment [2]; greater than 10000 nM at Mu-type opioid receptor; greater than 10000 nM in experiment [3]; 9 nM in experiment [4]. In the experiment with PC-12 [5], the Ratio Ki worked out at 3.2.
Turning to `CC[C@H]1C(=O)C[C@@H]2CCN(Cc3cccs3)[C@@H]3CCC[C@H]1[C@@H]23`, the Ki in experiment [1] was 1470 nM; in experiment [2], 187 nM; on Mu-type opioid receptor, 892 nM; in experiment [3] it was greater than 10000 nM; in experiment [4], 6 nM. Also, the Ratio Ki in the experiment on PC-12 [5] was found to be 31.2.
`COc1ccc(C[C@H]2C(=O)C[C@@H]3CCN(CC4CCCCC4)[C@@H]4CCC[C@H]2[C@@H]34)cc1`: the Ki in experiment [1] is 1600 nM; in experiment [2], 3 nM; on Mu-type opioid receptor it was greater than 10000 nM; in experiment [3], greater than 10000 nM; in experiment [4], 10 nM. The Ratio Ki with PC-12 [5] came to 0.3; in the experiment on PC-12 [6], 3.
Consider `CCCN1CC[C@H]2CC3=Nc4ccccc4[C@]3(CC)[C@H]3CCC[C@@H]1[C@H]23`, for which the Ki in experiment [1] is greater than 10000 nM; in experiment [2], 76 nM; at Mu-type opioid receptor it was greater than 10000 nM; in experiment [3], greater than 10000 nM; in experiment [4], 7 nM. In the experiment with PC-12 [5], the Ratio Ki was 10.9.
`O=C1C[C@@H]2CCN(CC3CCCCC3)[C@@H]3CCC[C@@H]([C@@H]23)[C@H]1Cc1ccccc1`: the Ki in experiment [1] is 1230 nM; in experiment [2] it was 2 nM; at Mu-type opioid receptor it was greater than 10000 nM; in experiment [3] it was greater than 10000 nM; in experiment [4], 3 nM. Also, the Ratio Ki with PC-12 [5] is 0.7.
Regarding `COCCN1CC[C@H]2CC(=O)[C@H](Cc3ccccc3)[C@H]3CCC[C@@H]1[C@H]23`, the Ki in experiment [1] was greater than 10000 nM; in experiment [2] it was 35 nM; at Mu-type opioid receptor, greater than 10000 nM; in experiment [3], greater than 10000 nM; in experiment [4], 2 nM. The Ratio Ki in the experiment with PC-12 [5] was found to be 17.5.
As for `CCCN1CC[C@H]2C[C@@H](O)[C@H](CC)[C@H]3CCC[C@@H]1[C@H]23`, the Ki in experiment [1] was greater than 10000 nM; in experiment [2] it was 183 nM; on Mu-type opioid receptor, greater than 10000 nM; in experiment [3], greater than 10000 nM; in experiment [4] it was 55 nM. The Ratio Ki with PC-12 [5] was determined as 3.3.
In the case of `CC(C)CCN1CC[C@H]2CC(=O)[C@H](Cc3ccccc3)[C@H]3CCC[C@@H]1[C@H]23`, the Ki in experiment [1] is 711 nM; in experiment [2] it was 3 nM; on Mu-type opioid receptor, greater than 10000 nM; in experiment [3], greater than 10000 nM; in experiment [4], 2 nM. In addition, the Ratio Ki in the experiment with PC-12 [5] stood at 1.5.
`CC[C@H]1C(=O)C[C@@H]2CCN(Cc3nccs3)[C@@H]3CCC[C@H]1[C@@H]23`: the Ki in experiment [1] was greater than 10000 nM; in experiment [2] it was 760 nM; at Mu-type opioid receptor, greater than 10000 nM; in experiment [3], greater than 10000 nM; in experiment [4], 407 nM. Besides, in the experiment with PC-12 [5], the Ratio Ki was 1.9.
Regarding `O=C1C[C@@H]2CCN(Cc3cccs3)[C@@H]3CCC[C@@H]([C@@H]23)[C@H]1Cc1ccccc1`, the Ki in experiment [1] was 638 nM; in experiment [2], 44 nM; at Mu-type opioid receptor, greater than 10000 nM; in experiment [3], greater than 10000 nM; in experiment [4], 3 nM. Also, the Ratio Ki with PC-12 [5] worked out at 14.7.
For the compound `CC[C@H]1C(=O)C[C@@H]2CCN(CCOC)[C@@H]3CCC[C@H]1[C@@H]23`, the Ki in experiment [1] was greater than 10000 nM; in experiment [2], 423 nM; on Mu-type opioid receptor, greater than 10000 nM; in experiment [3], greater than 10000 nM; in experiment [4], 26 nM. For the same compound, in the experiment with PC-12 [5], the Ratio Ki was determined as 16.3.
Turning to `CCCN1CC[C@@H]2CC(=O)C[C@H]3CCC[C@H]1[C@H]32`, the Ki was greater than 10000 nM in experiment [1]; 663 nM in experiment [2]; greater than 10000 nM on Mu-type opioid receptor; greater than 10000 nM in experiment [3]; 345 nM in experiment [4]. Also, the Ratio Ki in the experiment with PC-12 [5] was 1.9.
Turning to `CCCN1CC[C@H]2c3cc4ccccc4nc3[C@H](CC)[C@H]3CCC[C@@H]1[C@@H]32`, the Ki is 493 nM in experiment [1]; 27 nM in experiment [2]; greater than 10000 nM at Mu-type opioid receptor; greater than 10000 nM in experiment [3]; 70 nM in experiment [4]. The figures for the Ratio Ki with PC-12 [5] and with PC-12 [6] were 0.4 and 2.6, respectively.
On to `CCCN1CC[C@H]2c3cc4cc(Cl)ccc4nc3[C@H](CC)[C@H]3CCC[C@@H]1[C@@H]32`, for which the Ki is 372 nM in experiment [1]; 17 nM in experiment [2]; greater than 10000 nM at Mu-type opioid receptor; greater than 10000 nM in experiment [3]; 209 nM in experiment [4]. In addition, the Ratio Ki in the experiment on PC-12 [5] is 0.08; in the experiment with PC-12 [6], 12.3.
